# Measurements taken from ChEMBL document CHEMBL4152386, “Discovery of a Novel Inhaled PI3Kδ Inhibitor for the Treatment of Respiratory Diseases” (J Med Chem, 2018).
# How the values were obtained:
# [1] = target: T1, Phosphatidylinositol 4,5-bisphosphate 3-kinase catalytic subunit delta isoform (Mus musculus, UniProt O35904); test: Inhibition of mouse ABD-truncated p110delta catalytic subunit (unknown origin) expressed in Sf9 cells using diC8-PIP2 substrate incubated for 1 hr by fluorescence polarization assay
# T1 sequence (O35904 whole entry): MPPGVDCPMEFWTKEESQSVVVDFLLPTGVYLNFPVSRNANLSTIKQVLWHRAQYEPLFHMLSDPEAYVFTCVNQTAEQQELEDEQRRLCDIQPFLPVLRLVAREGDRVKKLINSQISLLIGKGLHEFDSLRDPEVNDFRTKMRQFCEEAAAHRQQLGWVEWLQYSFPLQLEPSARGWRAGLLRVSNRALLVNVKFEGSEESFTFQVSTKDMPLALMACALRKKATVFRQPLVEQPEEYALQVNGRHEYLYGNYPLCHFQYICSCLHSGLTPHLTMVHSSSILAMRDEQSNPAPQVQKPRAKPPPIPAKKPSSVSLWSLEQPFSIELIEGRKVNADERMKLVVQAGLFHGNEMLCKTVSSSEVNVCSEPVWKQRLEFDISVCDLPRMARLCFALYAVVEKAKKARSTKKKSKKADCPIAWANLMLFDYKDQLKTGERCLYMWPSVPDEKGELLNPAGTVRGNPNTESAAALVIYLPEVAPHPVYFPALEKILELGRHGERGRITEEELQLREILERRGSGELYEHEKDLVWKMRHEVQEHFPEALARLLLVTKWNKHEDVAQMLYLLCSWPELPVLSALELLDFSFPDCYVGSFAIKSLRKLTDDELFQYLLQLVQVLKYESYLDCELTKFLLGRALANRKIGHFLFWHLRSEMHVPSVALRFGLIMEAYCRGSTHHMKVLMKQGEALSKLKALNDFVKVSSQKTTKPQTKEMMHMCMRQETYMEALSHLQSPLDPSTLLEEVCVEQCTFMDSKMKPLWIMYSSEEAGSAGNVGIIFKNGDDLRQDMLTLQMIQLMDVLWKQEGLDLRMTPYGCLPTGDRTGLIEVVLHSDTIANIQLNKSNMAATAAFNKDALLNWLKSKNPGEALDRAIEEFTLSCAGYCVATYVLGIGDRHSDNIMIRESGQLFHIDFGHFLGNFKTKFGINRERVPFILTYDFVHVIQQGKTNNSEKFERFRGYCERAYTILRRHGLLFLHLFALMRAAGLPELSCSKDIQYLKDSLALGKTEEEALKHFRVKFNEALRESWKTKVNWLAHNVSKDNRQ
# [2] = target: Phosphatidylinositol 4,5-bisphosphate 3-kinase catalytic subunit gamma isoform (Homo sapiens, UniProt P48736); test: Inhibition of recombinant human N-terminal His6-tagged full length p110gamma using PIP2 as substrate preincubated for 30 mins followed by substrate addition by HTRF assay
# Phosphatidylinositol 4,5-bisphosphate 3-kinase catalytic subunit gamma isoform, sequence (P48736 whole entry, canonical isoform): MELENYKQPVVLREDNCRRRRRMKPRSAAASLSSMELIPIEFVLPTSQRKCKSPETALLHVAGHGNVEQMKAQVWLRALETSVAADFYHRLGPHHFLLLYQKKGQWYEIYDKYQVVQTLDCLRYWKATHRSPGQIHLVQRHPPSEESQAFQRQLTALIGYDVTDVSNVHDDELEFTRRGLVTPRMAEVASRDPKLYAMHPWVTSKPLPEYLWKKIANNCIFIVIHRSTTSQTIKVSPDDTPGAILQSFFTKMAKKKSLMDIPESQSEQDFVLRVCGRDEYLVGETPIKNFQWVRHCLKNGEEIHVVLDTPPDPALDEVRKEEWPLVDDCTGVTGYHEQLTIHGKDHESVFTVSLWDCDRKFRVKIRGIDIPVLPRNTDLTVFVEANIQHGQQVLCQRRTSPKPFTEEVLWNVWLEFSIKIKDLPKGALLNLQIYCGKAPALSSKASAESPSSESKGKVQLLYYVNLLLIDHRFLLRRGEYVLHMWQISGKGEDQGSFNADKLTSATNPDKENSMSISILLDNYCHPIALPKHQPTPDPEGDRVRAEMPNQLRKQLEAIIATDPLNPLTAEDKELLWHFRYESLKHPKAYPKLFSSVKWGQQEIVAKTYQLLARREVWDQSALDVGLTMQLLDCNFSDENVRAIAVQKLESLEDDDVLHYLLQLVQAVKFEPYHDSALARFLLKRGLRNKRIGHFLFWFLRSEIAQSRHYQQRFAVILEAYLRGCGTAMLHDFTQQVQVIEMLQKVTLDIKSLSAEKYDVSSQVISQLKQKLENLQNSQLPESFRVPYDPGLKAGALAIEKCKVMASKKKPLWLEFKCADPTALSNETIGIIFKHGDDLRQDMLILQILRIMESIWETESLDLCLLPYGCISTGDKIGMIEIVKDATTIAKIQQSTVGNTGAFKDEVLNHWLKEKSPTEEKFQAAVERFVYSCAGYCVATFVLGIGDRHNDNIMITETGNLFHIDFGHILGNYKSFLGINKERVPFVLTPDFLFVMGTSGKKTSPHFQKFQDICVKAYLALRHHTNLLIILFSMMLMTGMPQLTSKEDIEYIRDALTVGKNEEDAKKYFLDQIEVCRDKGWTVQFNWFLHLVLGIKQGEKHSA
# [3] = Drug metabolism in rat liver microsomes assessed as disappearance of parent compound at 5 uM after 30 mins in presence of NADPH by UPLC-MS/MS analysis; assay type: ADME, microsome; conditions: read-out: Drug metabolism
# [4] = Drug metabolism in rat liver microsomes assessed as disappearance of parent compound at 5 uM preincubated for 3 mins followed UDPG addition and measured after 120 mins by UPLC-MS/MS analysis; assay type: ADME, microsome; conditions: read-out: Drug metabolism
# [5] = Drug metabolism in human liver microsomes assessed as disappearance of parent compound at 5 uM after 30 mins in presence of NADPH by UPLC-MS/MS analysis; assay type: ADME, microsome; conditions: read-out: Drug metabolism
# [6] = Drug metabolism in human liver microsomes assessed as disappearance of parent compound at 5 uM preincubated for 3 mins followed UDPG addition and measured after 120 mins by UPLC-MS/MS analysis; assay type: ADME, microsome; conditions: read-out: Drug metabolism
# [7] = target: T2, Phosphatidylinositol 4,5-bisphosphate 3-kinase catalytic subunit delta isoform (Homo sapiens, UniProt O00329); test: Inhibition of PI3Kdelta in human THP-1 cells assessed as reduction in M-CSF-stimulated AKT phosphorylation at Thr308 preincubated for 30 mins followed by M-CSF addition for 3 mins by ELISA; assay type: cell-based
# T2 sequence (O00329 whole entry): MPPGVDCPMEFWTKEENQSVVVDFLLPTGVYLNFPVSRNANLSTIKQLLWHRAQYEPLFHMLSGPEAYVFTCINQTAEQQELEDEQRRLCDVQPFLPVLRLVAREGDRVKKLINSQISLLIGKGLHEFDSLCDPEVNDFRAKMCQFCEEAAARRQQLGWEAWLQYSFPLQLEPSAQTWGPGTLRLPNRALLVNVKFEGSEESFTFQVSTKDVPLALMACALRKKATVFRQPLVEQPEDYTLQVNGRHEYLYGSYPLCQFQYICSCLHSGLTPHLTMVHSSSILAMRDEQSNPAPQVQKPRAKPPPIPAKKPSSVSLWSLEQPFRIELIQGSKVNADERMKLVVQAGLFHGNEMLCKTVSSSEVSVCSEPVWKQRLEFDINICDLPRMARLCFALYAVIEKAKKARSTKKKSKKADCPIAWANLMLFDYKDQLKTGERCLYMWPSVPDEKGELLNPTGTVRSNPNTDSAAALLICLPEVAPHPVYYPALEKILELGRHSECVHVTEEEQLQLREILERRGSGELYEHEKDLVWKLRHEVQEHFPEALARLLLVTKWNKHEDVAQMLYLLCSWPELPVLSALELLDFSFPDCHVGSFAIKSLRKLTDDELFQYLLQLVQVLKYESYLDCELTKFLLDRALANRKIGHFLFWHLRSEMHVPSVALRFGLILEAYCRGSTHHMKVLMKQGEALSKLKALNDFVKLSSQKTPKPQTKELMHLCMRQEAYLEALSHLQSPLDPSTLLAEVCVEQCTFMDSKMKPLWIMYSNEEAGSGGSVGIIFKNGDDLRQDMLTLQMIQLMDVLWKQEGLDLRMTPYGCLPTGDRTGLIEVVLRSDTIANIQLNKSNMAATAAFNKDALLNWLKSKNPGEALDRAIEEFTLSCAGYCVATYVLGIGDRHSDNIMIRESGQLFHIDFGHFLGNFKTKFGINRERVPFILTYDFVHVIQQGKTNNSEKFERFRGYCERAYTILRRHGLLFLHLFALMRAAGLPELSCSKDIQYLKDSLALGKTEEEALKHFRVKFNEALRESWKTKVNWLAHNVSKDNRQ
# [8] = Apparent permeability of the compound at 20 uM by PAMPA assay; assay type: ADME
# [9] = Thermodynamic aqueous solubility of the compound at pH 7.4; assay type: physicochemical; conditions: buffer, read-out: Therm_solubility
# [10] = AUC in Wistar rat at 1 mg/kg, iv; assay type: ADME, organism-based; conditions: in vivo
# [11] = Cmax in Wistar rat at 1 mg/kg, iv; assay type: ADME, organism-based; set-up: dose 1 mg/kg, route intravenous; conditions: in vivo
# [12] = Clearance in Wistar rat at 1 mg/kg, iv; assay type: ADME, organism-based; conditions: in vivo
# [13] = Volume of distribution at steady state in Wistar rat at 1 mg/kg, iv; assay type: ADME, organism-based; conditions: in vivo, read-out: Vdss
# [14] = Half life in Wistar rat at 1 mg/kg, iv; assay type: ADME, organism-based; conditions: in vivo
# [15] = Oral bioavailability in Wistar rat at 1 mg/kg; assay type: ADME, organism-based; conditions: in vivo
# [16] = Protein binding in rat plasma at 1 uM by equilibrium dialysis; assay type: ADME, cell-free; conditions: read-out: PPB (converted)
# [17] = AUC in Wistar rat lung at 0.015 mg/kg, it administered as solution; assay type: ADME, organism-based; conditions: in vivo, inhaled_or_intranasal
# [18] = AUC in Wistar rat lung at 0.3 mg/kg, it administered as suspension; assay type: ADME, organism-based; conditions: in vivo, inhaled_or_intranasal
# [19] = AUC in Wistar rat plasma at 0.015 mg/kg, it administered as solution; assay type: ADME, organism-based; conditions: inhaled or intranasal
# [20] = AUC in Wistar rat plasma at 0.3 mg/kg, it administered as suspension; assay type: ADME, organism-based; conditions: inhaled or intranasal
# [21] = Ratio of AUC in lung to plasma of Wistar rat at 0.015 mg/kg, it administered as solution; assay type: ADME, organism-based; conditions: other tissue, inhaled_or_intranasal
# [22] = Ratio of AUC in lung to plasma of Wistar rat at 0.3 mg/kg, it administered as suspension; assay type: ADME, organism-based; conditions: other tissue, inhaled_or_intranasal
# [23] = Cmax in Wistar rat lung at 0.015 mg/kg, it administered as solution; assay type: ADME, organism-based; set-up: dose 0.015 mg/kg; conditions: inhaled or intranasal
# [24] = Cmax in Wistar rat lung at 0.3 mg/kg, it administered as suspension; assay type: ADME, organism-based; set-up: dose 0.3 mg/kg; conditions: inhaled or intranasal
# [25] = Cmax in Wistar rat plasma at 0.015 mg/kg, it administered as solution; assay type: ADME, organism-based; set-up: dose 0.015 mg/kg; conditions: inhaled or intranasal
# [26] = Cmax in Wistar rat plasma at 0.3 mg/kg, it administered as suspension; assay type: ADME, organism-based; set-up: dose 0.3 mg/kg; conditions: inhaled or intranasal
# [27] = Half life in Wistar rat lung at 0.015 mg/kg, it administered as solution; assay type: ADME, organism-based; conditions: inhaled or intranasal
# [28] = Half life in Wistar rat lung at 0.3 mg/kg, it administered as suspension; assay type: ADME, organism-based; conditions: inhaled or intranasal
# [29] = Half life in Wistar rat plasma at 0.015 mg/kg, it administered as solution; assay type: ADME, organism-based; conditions: inhaled or intranasal
# [30] = Half life in Wistar rat plasma at 0.3 mg/kg, it administered as suspension; assay type: ADME, organism-based; conditions: inhaled or intranasal
# Rattus norvegicus [31] = test: Anti-inflammatory activity in Brown Norway rat model of ovalbumin-induced inflammation assessed inhibition of eosinophil infiltration in bronchoalveolar lavage at 0.3 mg/kg, it administered 1 hr before ovalbumin aerosol challenge and measured 24 hrs post challenge by hematology analysis relative to control; assay type: functional; conditions: inhaled or nasal
# Rattus norvegicus [32] = test: Anti-inflammatory activity in Brown Norway rat model of ovalbumin-induced inflammation assessed inhibition of neutrophil infiltration in bronchoalveolar lavage at 0.3 mg/kg, it administered 1 hr before ovalbumin aerosol challenge and measured 24 hrs post challenge by hematology analysis relative to control; assay type: functional; conditions: inhaled or nasal
# Rattus norvegicus [33] = test: Anti-inflammatory activity in Brown Norway rat model of ovalbumin-induced inflammation assessed inhibition of eosinophil infiltration in bronchoalveolar lavage at 0.1 mg/kg, it administered 1 hr before ovalbumin aerosol challenge and measured 24 hrs post challenge by hematology analysis relative to control; assay type: functional; conditions: inhaled or nasal
# Rattus norvegicus [34] = test: Anti-inflammatory activity in Brown Norway rat model of ovalbumin-induced inflammation assessed inhibition of neutrophils infiltration in bronchoalveolar lavage at 0.1 mg/kg, it administered 1 hr before ovalbumin aerosol challenge and measured 24 hrs post challenge by hematology analysis relative to control; assay type: functional; conditions: inhaled or nasal
# [35] = target: Voltage-gated inwardly rectifying potassium channel KCNH2 (Homo sapiens, UniProt Q12809); test: Inhibition of human ERG up to 10 uM
# Voltage-gated inwardly rectifying potassium channel KCNH2, sequence (Q12809 whole entry): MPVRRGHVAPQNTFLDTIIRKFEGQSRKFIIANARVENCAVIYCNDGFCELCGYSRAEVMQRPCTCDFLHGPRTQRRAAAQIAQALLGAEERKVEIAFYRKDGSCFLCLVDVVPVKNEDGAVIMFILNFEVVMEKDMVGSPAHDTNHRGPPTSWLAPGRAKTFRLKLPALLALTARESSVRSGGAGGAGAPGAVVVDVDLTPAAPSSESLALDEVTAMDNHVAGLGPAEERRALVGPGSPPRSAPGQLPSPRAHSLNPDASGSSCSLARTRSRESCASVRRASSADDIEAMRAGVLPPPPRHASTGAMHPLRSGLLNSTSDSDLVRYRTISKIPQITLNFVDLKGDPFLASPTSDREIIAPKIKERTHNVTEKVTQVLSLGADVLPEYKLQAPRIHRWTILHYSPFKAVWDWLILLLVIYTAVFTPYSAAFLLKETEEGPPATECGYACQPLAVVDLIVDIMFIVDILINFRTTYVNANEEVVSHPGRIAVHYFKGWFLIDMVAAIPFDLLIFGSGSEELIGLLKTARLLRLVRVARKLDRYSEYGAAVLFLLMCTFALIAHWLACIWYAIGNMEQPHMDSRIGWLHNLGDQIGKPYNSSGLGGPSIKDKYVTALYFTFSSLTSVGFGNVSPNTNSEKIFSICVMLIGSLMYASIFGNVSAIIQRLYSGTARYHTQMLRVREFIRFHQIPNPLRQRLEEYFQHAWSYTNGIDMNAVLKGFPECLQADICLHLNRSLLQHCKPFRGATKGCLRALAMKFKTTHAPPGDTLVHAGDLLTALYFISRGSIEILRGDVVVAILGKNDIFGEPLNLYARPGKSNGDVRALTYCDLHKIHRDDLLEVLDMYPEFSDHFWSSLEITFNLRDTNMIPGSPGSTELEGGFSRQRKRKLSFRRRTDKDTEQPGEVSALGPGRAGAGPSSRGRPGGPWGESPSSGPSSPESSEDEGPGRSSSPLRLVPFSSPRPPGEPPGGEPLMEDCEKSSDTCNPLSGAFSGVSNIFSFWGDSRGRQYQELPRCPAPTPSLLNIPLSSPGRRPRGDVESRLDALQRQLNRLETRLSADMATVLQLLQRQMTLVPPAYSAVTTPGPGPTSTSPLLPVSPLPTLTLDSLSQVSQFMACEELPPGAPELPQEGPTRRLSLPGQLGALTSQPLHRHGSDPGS
# Rattus norvegicus [36] = test: fCmax in Brown Norway rat model of ovalbumin-induced inflammation assessed inhibition of eosinophil infiltration in bronchoalveolar lavage at 0.3 mg/kg, it administered 1 hr before ovalbumin aerosol challenge and measured 24 hrs post challenge by hematology analysis relative to control; assay type: organism-based; conditions: in vivo, inhaled_or_intranasal
# [37] = target: PI3-kinase p110-delta/p85-alpha (Homo sapiens, UniProt O00329)
# PI3-kinase p110-delta/p85-alpha, sequence (P27986 whole entry, one chain of several): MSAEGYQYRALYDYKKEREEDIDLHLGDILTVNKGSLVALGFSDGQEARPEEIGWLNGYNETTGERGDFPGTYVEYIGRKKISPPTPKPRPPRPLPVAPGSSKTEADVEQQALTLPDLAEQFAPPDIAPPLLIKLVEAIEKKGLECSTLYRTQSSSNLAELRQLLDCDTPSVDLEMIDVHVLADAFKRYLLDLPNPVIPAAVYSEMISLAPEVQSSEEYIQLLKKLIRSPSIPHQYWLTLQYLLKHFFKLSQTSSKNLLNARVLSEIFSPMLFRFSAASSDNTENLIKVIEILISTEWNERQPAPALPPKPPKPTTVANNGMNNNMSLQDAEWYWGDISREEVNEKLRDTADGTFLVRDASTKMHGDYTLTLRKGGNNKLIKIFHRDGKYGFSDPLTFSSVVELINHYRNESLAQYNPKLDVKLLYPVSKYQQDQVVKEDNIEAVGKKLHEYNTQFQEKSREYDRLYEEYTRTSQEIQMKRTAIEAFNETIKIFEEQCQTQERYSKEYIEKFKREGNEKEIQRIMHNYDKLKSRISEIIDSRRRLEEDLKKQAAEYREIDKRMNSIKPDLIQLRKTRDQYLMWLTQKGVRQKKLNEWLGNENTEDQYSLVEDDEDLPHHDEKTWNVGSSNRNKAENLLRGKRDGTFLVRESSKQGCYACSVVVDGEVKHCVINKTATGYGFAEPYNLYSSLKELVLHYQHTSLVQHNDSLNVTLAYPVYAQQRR
# Description: Inhibition of recombinant human N-terminal His-tagged full length p110delta/recombinant human full length p85alpha using PIP2 as substrate preincubated for 30 mins followed by substrate addition by HTRF assay
# [38] = target: PI3-kinase p110-alpha/p85-alpha (Homo sapiens, UniProt P42336)
# Description: Inhibition of recombinant human N-terminal His6-tagged full length p110alpha/recombinant human full length p85alpha using PIP2 as substrate preincubated for 30 mins followed by substrate addition by HTRF assay
# PI3K p110 beta/p85 alpha = PI3K p110 beta/p85 alpha (Homo sapiens, UniProt P42338)
# PI3K p110 beta/p85 alpha, sequence (P27986 whole entry): as the sequence (P27986 whole entry, one chain of several) above
# PI3K p110 beta/p85 alpha, sequence (P42338 whole entry): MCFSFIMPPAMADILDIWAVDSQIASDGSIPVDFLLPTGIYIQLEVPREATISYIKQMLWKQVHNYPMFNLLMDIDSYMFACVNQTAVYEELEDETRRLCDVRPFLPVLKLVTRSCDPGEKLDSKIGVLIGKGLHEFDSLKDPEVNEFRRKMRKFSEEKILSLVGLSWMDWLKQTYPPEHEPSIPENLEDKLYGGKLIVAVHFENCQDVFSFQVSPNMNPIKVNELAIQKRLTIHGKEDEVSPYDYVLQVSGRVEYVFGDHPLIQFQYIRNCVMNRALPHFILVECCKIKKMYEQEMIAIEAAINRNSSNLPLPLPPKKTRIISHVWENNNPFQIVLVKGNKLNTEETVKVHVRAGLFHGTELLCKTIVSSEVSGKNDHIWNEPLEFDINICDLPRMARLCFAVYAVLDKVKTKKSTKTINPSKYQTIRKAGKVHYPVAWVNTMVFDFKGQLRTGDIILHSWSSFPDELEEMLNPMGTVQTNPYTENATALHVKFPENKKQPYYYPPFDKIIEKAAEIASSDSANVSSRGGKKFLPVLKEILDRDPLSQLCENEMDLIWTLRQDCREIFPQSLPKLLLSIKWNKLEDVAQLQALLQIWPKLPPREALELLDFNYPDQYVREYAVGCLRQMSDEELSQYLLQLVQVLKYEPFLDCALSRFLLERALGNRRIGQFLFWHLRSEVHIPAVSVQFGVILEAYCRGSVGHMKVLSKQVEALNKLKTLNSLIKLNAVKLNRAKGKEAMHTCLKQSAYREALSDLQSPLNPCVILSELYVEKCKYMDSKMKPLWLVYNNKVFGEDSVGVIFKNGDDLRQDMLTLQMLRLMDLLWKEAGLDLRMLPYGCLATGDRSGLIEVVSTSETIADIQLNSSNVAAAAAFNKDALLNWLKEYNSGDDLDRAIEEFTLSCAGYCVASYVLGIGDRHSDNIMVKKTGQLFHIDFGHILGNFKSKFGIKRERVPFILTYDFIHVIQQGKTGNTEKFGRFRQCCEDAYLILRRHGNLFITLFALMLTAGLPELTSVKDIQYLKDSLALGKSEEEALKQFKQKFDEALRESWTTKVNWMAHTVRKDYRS
# Description: Inhibition of recombinant human N-terminal His6-tagged full length p110beta/recombinant human full length p85alpha using PIP2 as substrate preincubated for 30 mins followed by substrate addition and HTRF assay
smiles,measurement,setting,value
Cc1ccccc1-n1c(CN2CNc3c(N)ncnc32)nc2cccc(C)c2c1=O,IC50,[1],130 nM
Cc1ccn2nc([C@H](C)Nc3ncnc4[nH]cc(-c5cc(NS(C)(=O)=O)cc6[nH]ccc56)c34)n(-c3ccccc3)c(=O)c12,IC50,[2],36 nM
same,"metabolised at 0.5 h, 5 µM",[3],32%
same,"metabolised at 2 h, 5 µM",[4],10%
same,"metabolised at 0.5 h, 5 µM",[5],68%
same,"metabolised at 2 h, 5 µM",[6],30%
same,IC50,[7],2.7 nM
same,Papp at 20 µM,[8],0.2 ×10⁻⁶ cm/s
same,solubility thermodynamic,[9],3 µg/mL
same,AUC,[10],171 ng·h/mL
same,Cmax,[11],455 ng/mL
same,clearance,[12],96 mL/min/kg
same,Vd,[13],5.2 L/kg
same,half-life,[14],1.7 h
same,bioavailability,[15],1%
same,fraction unbound at 1 µM,[16],0.011
same,AUC,[17],15.5 µg·h/g
same,AUC,[18],459.6 µg·h/g
same,AUC,[19],5.3 ng·h/mL
same,AUC,[20],96.5 ng·h/mL
same,Ratio,[21],2925
same,Ratio,[22],4763
same,Cmax,[23],3400 ng/g
same,Cmax,[24],73300 ng/g
same,Cmax,[25],1.4 ng/mL
same,Cmax,[26],16400 ng/mL
same,half-life,[27],2.8 h
same,half-life,[28],4.5 h
same,half-life,[29],3.2 h
same,half-life,[30],3.2 h
same,inhibition in vivo at 0.3 mg/kg,Rattus norvegicus [31],55%
same,inhibition in vivo at 0.3 mg/kg,Rattus norvegicus [32],77%
same,inhibition in vivo at 0.1 mg/kg,Rattus norvegicus [33],21%
same,inhibition in vivo at 0.1 mg/kg,Rattus norvegicus [34],42%
same,inhibition (INH),[35],Not Active
same,fCmax,Rattus norvegicus [36],0.3 nM
same,IC50,[37],0.5 nM
same,IC50,[38],1900 nM
same,IC50,PI3K p110 beta/p85 alpha,10 nM
